Assay results reported in ChEMBL document CHEMBL1909046, “DrugMatrix in vitro pharmacology data”.

Assays:
[1] = target: T1, Adenosine receptor A3 (Homo sapiens, UniProt P0DMS8); format: cell membranes, CHO-K1, Membrane; settings: for Ki: read-out: Ki;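 as to all read-outs here: radioligand binding assay with AB-MECA serving as the labeled ligand; in other assays of this panel Not Active means under 50% inhibition at 10 µM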
T1 sequence (P0DMS8 whole entry): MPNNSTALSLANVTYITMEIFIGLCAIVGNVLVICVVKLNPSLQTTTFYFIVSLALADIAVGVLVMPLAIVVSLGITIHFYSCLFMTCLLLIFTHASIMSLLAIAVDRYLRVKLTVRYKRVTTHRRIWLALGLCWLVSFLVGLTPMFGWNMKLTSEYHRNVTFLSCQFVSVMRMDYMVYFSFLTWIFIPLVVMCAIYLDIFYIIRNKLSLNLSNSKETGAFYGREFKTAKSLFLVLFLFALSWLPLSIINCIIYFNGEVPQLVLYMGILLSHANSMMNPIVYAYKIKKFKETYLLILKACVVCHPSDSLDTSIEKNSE

[2] = target: T2, Muscarinic acetylcholine receptor M2 (Homo sapiens, UniProt P08172); format: cell membranes, CHO-K1, Membrane; also: in other assays of this panel Not Active means under 50% inhibition at 10 µM
T2 sequence (P08172 whole entry): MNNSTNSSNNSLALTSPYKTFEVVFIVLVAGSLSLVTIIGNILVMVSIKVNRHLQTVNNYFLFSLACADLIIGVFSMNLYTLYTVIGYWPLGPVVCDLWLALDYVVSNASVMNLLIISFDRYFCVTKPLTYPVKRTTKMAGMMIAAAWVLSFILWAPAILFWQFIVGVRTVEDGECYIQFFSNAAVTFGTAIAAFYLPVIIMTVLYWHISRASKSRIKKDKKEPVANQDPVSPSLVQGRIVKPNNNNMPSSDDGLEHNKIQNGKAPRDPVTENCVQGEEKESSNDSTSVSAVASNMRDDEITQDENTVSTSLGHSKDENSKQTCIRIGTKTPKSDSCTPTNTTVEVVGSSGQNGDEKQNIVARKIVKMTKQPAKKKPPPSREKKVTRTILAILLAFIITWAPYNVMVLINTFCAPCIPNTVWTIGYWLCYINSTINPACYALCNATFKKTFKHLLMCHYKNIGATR

[3] = target: Histamine H2 receptor (Homo sapiens, UniProt P25021); format: cell membranes, CHO-K1, Membrane; settings: for Ki: read-out: Ki; as to all read-outs here: in other assays of this panel Not Active means under 50% inhibition at 10 µM
[4] = target: Epidermal growth factor receptor (Homo sapiens, UniProt P00533); experiment: DRUGMATRIX: Protein Tyrosine Kinase, EGF Receptor enzyme inhibition (substrate: Poly(Glu:Tyr)); format: cell-based, Insect cells; settings: Not Active = under 50% inhibition at 10 µM
[5] = DRUGMATRIX: Tumor Necrosis Factor (TNF), Non-Selective radioligand binding (ligand: [125I] TNF-alpha); format: cell membranes, Membrane; settings: u-937; Not Active = under 50% inhibition at 10 µM
[6] = target: T3, Receptor-type tyrosine-protein phosphatase C (Homo sapiens, UniProt P08575); design: species or system Escherichia coli;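 also: inhibition of CD45 enzyme activity measured using DiFMUP as substrate; in other assays of this panel Not Active means under 50% inhibition at 10 µM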
T3 sequence (P08575 whole entry): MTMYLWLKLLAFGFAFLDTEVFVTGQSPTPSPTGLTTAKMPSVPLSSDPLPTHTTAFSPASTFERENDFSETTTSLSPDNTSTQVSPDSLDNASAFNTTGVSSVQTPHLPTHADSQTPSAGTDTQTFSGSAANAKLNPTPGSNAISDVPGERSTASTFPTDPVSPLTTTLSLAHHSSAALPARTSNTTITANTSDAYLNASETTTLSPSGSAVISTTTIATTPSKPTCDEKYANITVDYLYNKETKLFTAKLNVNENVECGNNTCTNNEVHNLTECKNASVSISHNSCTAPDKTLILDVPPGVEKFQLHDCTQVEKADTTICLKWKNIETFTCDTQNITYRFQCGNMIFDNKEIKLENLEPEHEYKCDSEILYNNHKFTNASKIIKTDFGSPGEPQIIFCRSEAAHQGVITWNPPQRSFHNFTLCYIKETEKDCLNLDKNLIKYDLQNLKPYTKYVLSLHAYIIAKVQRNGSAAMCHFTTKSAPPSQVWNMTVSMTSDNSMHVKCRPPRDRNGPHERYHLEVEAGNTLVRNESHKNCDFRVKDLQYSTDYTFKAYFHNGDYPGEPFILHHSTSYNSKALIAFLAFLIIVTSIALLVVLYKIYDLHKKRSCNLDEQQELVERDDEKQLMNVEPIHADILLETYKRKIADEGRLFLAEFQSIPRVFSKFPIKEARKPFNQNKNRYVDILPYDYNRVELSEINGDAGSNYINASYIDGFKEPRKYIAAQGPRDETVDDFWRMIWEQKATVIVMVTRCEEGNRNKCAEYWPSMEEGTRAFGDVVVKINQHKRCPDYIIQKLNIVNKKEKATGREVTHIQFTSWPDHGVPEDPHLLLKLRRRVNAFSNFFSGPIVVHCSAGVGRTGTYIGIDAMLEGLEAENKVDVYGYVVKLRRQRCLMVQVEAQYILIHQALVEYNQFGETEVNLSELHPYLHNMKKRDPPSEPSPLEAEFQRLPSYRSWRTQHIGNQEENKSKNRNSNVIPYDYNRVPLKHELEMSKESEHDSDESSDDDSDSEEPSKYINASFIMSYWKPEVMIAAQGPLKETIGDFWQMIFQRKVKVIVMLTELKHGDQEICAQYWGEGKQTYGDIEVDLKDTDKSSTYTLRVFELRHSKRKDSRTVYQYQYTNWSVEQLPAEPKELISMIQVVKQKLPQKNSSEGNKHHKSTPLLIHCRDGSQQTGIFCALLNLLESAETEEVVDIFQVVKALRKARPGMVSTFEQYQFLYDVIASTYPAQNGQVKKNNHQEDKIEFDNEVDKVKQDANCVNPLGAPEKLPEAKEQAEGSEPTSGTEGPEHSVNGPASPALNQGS

Sequence of Epidermal growth factor receptor (P00533 whole entry): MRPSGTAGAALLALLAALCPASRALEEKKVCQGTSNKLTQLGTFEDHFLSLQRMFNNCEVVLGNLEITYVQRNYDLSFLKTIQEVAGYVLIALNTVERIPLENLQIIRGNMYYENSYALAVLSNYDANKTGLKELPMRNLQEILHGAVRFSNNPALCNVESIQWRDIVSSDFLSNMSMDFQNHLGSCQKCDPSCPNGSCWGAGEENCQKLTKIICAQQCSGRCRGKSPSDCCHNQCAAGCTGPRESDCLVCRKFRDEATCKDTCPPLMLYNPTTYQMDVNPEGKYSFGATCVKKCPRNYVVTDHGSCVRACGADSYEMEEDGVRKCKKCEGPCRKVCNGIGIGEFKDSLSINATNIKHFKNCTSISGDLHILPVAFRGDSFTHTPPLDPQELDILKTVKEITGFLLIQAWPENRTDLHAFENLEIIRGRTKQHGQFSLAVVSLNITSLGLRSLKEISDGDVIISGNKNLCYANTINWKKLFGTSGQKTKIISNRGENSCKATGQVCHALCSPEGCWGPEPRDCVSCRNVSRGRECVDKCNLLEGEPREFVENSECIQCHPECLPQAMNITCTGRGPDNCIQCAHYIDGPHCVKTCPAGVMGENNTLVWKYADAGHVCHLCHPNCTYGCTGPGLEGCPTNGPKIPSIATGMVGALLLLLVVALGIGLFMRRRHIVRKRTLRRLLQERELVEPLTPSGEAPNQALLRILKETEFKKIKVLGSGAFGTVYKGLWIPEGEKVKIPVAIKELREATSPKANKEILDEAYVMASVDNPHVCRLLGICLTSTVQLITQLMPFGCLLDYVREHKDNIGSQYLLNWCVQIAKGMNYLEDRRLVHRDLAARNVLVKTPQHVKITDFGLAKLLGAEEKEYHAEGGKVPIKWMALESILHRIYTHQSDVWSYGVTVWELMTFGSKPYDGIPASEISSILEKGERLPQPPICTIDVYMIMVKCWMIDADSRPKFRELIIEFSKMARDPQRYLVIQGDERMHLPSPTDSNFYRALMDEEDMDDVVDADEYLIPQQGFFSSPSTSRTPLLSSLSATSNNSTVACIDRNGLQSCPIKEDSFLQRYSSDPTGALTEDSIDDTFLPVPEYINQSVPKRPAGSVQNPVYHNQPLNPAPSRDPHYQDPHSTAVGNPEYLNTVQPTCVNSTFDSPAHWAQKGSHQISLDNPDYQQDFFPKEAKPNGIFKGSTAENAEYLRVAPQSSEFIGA
Sequence of Histamine H2 receptor (P25021 whole entry): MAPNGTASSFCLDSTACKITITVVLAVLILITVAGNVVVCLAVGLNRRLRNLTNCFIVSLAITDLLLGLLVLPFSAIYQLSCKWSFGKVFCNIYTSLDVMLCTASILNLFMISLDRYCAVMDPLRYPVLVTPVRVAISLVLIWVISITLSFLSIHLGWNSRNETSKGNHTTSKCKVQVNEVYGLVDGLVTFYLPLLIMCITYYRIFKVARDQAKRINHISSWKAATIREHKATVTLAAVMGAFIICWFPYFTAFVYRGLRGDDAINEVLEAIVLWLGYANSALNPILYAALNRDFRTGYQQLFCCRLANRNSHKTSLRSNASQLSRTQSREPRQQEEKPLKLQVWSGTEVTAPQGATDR

| SMILES | IC50 ([1]; cho-k1) | IC50 ([2]; cho-k1) | IC50 ([3]; cho-k1) | IC50 ([4]; insect cells) | IC50 [5] | Ki [5] | IC50 [6] | IC50 ([1]; read-out: IC50) [µM] | Ki [1] [µM] | IC50 ([2]; read-out: IC50) [µM] | Ki ([2]; read-out: Ki) [µM] | IC50 ([4]; read-out: IC50) [µM] | IC50 ([3]; read-out: IC50) [µM] | Ki [3] [µM] |
| --- | --- | --- | --- | --- | --- | --- | --- | --- | --- | --- | --- | --- | --- | --- |
| C#C[C@]1(O)CC[C@H]2[C@@H]3[C@H](C)CC4=C(CCC(=O)C4)[C@H]3CC[C@@]21C [TIBOLONE] | Not Active | Not Active | Not Active | Not Active | Not Active | Not Active | Not Active | – | – | – | – | – | – | – |
| CN1C(=O)OC(C)(C)C1=O [TRIMETHADIONE] | Not Active | Not Active | Not Active | Not Active | Not Active | Not Active | Not Active | – | – | – | – | – | – | – |
| OC[C@@H](O)[C@@H](O)[C@H](O)[C@H](O)CO [MANNITOL] | Not Active | Not Active | Not Active | Not Active | Not Active | Not Active | Not Active | – | – | – | – | – | – | – |
| CCN(CC)C(=S)SSC(=S)N(CC)CC | – | Not Active | Not Active | Not Active | Not Active | Not Active | Not Active | 0.356 | 0.201 | – | – | – | – | – |
| O=C(O)c1cc(/N=N/c2ccc(S(=O)(=O)Nc3ccccn3)cc2)ccc1O [SULFASALAZINE] | Not Active | Not Active | Not Active | Not Active | Not Active | Not Active | Not Active | – | – | – | – | – | – | – |
| O=C(c1ccccc1)c1ccc2n1CCC2C(=O)O (centres undefined) [KETOROLAC] | Not Active | Not Active | Not Active | Not Active | Not Active | Not Active | Not Active | – | – | – | – | – | – | – |
| CC[C@H](C)[C@@H](CO[C@@H](Cc1ccccc1)C(=O)N[C@@H](CCS(C)(=O)=O)C(=O)OC(C)C)NC[C@@H](N)CS | Not Active | – | Not Active | – | Not Active | Not Active | Not Active | – | – | 3.57 | 1.27 | 3.22 | – | – |
| CC(C)(C)NC[C@H](O)COc1cccc2c1CCCC2=O [LEVOBUNOLOL] | Not Active | Not Active | Not Active | Not Active | Not Active | Not Active | Not Active | – | – | – | – | – | – | – |
| C[N+]1(C)[C@@H]2C[C@@H](OC(=O)[C@H](CO)c3ccccc3)C[C@H]1[C@@H]1O[C@@H]12.[Br-] [METHSCOPOLAMINE BROMIDE] | Not Active | – | Not Active | Not Active | Not Active | Not Active | Not Active | – | – | – | – | – | – | – |
| CO[C@@H]1[C@@H](OC)[C@H](C)[C@@](O)(CC(=O)O)O[C@H]1[C@H](C)[C@H]1O[C@@]2(CC[C@@](C)([C@H]3CC[C@@](C)([C@@H]4O[C@@H]([C@H]5O[C@](C)(O)[C@H](C)C[C@@H]5C)C[C@@H]4O[C@@H]4C[C@H](OC)[C@@H](OC)[C@H](C)O4)O3)O2)C[C@H](O)[C@H]1C.N [MADURAMICIN] | Not Active | Not Active | Not Active | Not Active | Not Active | Not Active | Not Active | – | – | – | – | – | – | – |
| Cc1nnc(NS(=O)(=O)c2ccc(N)cc2)s1 [SULFAMETHIZOLE] | Not Active | Not Active | Not Active | Not Active | Not Active | Not Active | Not Active | – | – | – | – | – | – | – |
| Cc1cnc(NC(=O)C2=C(O)c3ccccc3S(=O)(=O)N2C)s1 [MELOXICAM] | Not Active | Not Active | Not Active | Not Active | Not Active | Not Active | Not Active | – | – | – | – | – | – | – |
| CC1=C(/C=C/C(C)=C/C=C/C(C)=C/C(=O)O)C(C)(C)CCC1 [TRETINOIN] | – | Not Active | Not Active | Not Active | Not Active | Not Active | Not Active | 5.27 | 2.98 | – | – | – | – | – |
| Cc1ccc(S(=O)(=O)NC(=O)NN2CCCCCC2)cc1 [TOLAZAMIDE] | Not Active | Not Active | Not Active | Not Active | Not Active | Not Active | Not Active | – | – | – | – | – | – | – |
| Cc1cccc(C)c1NC(=O)C(C)N (centres undefined) [TOCAINIDE] | Not Active | Not Active | Not Active | Not Active | Not Active | Not Active | Not Active | – | – | – | – | – | – | – |
| Cc1cc2c(s1)Nc1ccccc1N=C2N1CCN(C)CC1 [OLANZAPINE] | Not Active | Not Active | Not Active | Not Active | – | – | Not Active | – | – | – | – | – | – | – |
| COC(=O)Nc1nc2ccc(C(=O)c3ccccc3)cc2[nH]1 [MEBENDAZOLE] | Not Active | Not Active | Not Active | – | Not Active | Not Active | Not Active | – | – | – | – | – | – | – |
| O=C1CC[C@@]2(O)[C@H]3Cc4ccc(O)c5c4[C@@]2(CCN3CC2CC2)[C@H]1O5 [NALTREXONE] | Not Active | Not Active | Not Active | Not Active | Not Active | Not Active | Not Active | – | – | – | – | – | – | – |
| CCN(CC)CCNC(=O)c1cc(Cl)c(N)cc1OC [METOCLOPRAMIDE] | Not Active | Not Active | Not Active | Not Active | Not Active | Not Active | Not Active | – | – | – | – | – | – | – |
| CCOc1cc(N)c(Cl)cc1C(=O)NCC1CN(Cc2ccc(F)cc2)CCO1 (centres undefined) [MOSAPRIDE] | Not Active | Not Active | Not Active | Not Active | Not Active | Not Active | Not Active | – | – | – | – | – | – | – |
| Cc1ccc(Cl)c(Nc2ccccc2C(=O)O)c1Cl [MECLOFENAMIC ACID] | Not Active | Not Active | Not Active | Not Active | Not Active | Not Active | Not Active | – | – | – | – | – | – | – |
| CN1C[C@H](CNC(=O)OCc2ccccc2)C[C@@H]2c3cccc4c3c(cn4C)C[C@H]21 [METERGOLINE] | Not Active | Not Active | – | Not Active | Not Active | Not Active | Not Active | – | – | – | – | – | 0.975 | 0.959 |
| O=[As][O-].[Na+] [SODIUM ARSENITE] | Not Active | Not Active | Not Active | Not Active | Not Active | Not Active | Not Active | – | – | – | – | – | – | – |
| CN(C)CCC=C1c2ccccc2COc2ccccc21 [DOXEPIN] | Not Active | – | – | Not Active | – | – | Not Active | – | – | – | – | – | – | – |
| CNCCCC12CCC(c3ccccc31)c1ccccc12 [MAPROTILINE] | Not Active | – | – | Not Active | – | – | Not Active | – | – | – | – | – | 0.4 | 0.393 |
